The conditions of series [1]: human.
For series [2] the following is noted: human. The source holds these as a separate data set.
For series [3] the following is noted: human. The source holds these as a separate data set.
The nature of series [4]: Highest frequency of moderate liver toxicity observed during clinical trials, expressed as a percentage. [column '% BIOL' in source]. To be noted: human.
For series [5] the following is noted: human. The source holds these as a separate data set.
A short description of series [6]: Times to onset, minimal and maximal, observed in the indexed observations. [column 'DELAI' in source]. To be noted: human.
The conditions of series [7]: human. The source holds these as a separate data set.
For series [8] the following is noted: human, serum.
The conditions of series [9]: human. The source holds these as a separate data set.
The conditions of series [10]: human, serum. This is another data set of the same source.
For series [11] the following is noted: human. The source holds these as a separate data set.
For series [12] the following is noted: human. This is another data set of the same source.
A short description of series [13]: Highest frequency of acute liver toxicity observed during clinical trials, expressed as a percentage. [column '% AIGUE' in source]. Conditions: human.
The nature of series [14]: Comments (NB not yet translated). [column 'COMMENTAIRES' in source]. To be noted: human.
For series [15] the following is noted: human. This is another data set of the same source.
The conditions of series [16]: human, serum, 4383 h.
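Throughout, for Hepatotoxicity (association with vascular disease): count of indexed literature references reporting vascular liver injury in humans, e.g. peliosis hepatitis, hepatic veno-occlusive disease or Budd-Chiari syndrome.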
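Throughout, for Hepatotoxicity (benign tumour): value is a count of indexed literature references citing a benign tumour confirmed by histopathology.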
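Throughout, for Hepatotoxicity (choleostasis): human cholestatic liver injury, shown by histopathology or by peak ALT or AST elevation over alkaline phosphatase ratio below 2, value counts indexed literature reports.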
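Throughout, for Hepatotoxicity (chronic liver disease): chronic liver injury confirmed by histopathology or persistently raised serum aminotransferase activity beyond 6 months, value given as the count of indexed literature references.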
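Throughout, for Hepatotoxicity (cirrhosis): value is a count of indexed literature references reporting cirrhosis confirmed by histopathology.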
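Throughout, for Hepatotoxicity (cytolytic): human cytolytic liver injury, shown by histopathology or by a ratio above 5 of peak ALT or AST elevation to alkaline phosphatase elevation, value counts indexed references.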
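Throughout, for Hepatotoxicity (granulomatous hepatitis): value is a count of indexed literature references reporting granulomatous liver disease confirmed by histopathology.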
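Throughout, for Hepatotoxicity (malignant tumour): malignant tumour confirmed by histopathology, value gives the count of indexed literature references reporting it.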
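Throughout, for Hepatotoxicity (severe hepatitis): human clinical data: severe hepatitis, meaning potentially life-threatening liver failure or clinically observed cases, the value counts how many indexed literature references report it.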
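Throughout, for Hepatotoxicity (steatosis): steatosis confirmed by histopathology, value is the count of indexed references.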

Take `C[C@]1(O)CC[C@H]2[C@@H]3CCC4=CC(=O)CC[C@]4(C)[C@@]3(F)[C@@H](O)C[C@@]21C` [FLUOXYMESTERONE]: the “Hepatotoxicity (severe hepatitis)” value in [1] is 0. In addition, the “Hepatotoxicity (association with vascular disease)” value in series [2] came out at 6. For the same compound, the “Hepatotoxicity (cytolytic)” value in [3] came out at 0. In addition, the “Hepatotoxicity (moderate)” value in series [4] is reported as 7.1%; in series [10], 2. In addition, the “Hepatotoxicity (choleostasis)” value in [5] is recorded as 2. In addition, the “Hepatotoxicity (time to onset)” value in [6] is on record as 6 months - 13 years. In addition, the “Hepatotoxicity (granulomatous hepatitis)” value in series [7] is reported as 0. The “Hepatotoxicity (acute)” value in series [8] was found to be 2; in [13], 0%. Further, the “Hepatotoxicity (steatosis)” value in [9] stood at 0. For the same compound, in series [11], the “Hepatotoxicity (cirrhosis)” value was found to be 0. In series [12], the “Hepatotoxicity (benign tumour)” value was determined as 1. The “Hepatotoxicity (comment)” value in series [14] is listed as “ANGIOSARCOME PELIOSE”. In series [15], the “Hepatotoxicity (malignant tumour)” value is on record as 3. Moreover, the “Hepatotoxicity (chronic liver disease)” value in [16] is given as 0.

With `CCC(=O)O[C@@H](O[P@](=O)(CCCCc1ccccc1)CC(=O)N1C[C@H](C2CCCCC2)C[C@H]1C(=O)O)C(C)C` [FOSINOPRIL], in [1], the “Hepatotoxicity (severe hepatitis)” value is on record as 0. Further, the “Hepatotoxicity (association with vascular disease)” value in series [2] is recorded as 0. Moreover, the “Hepatotoxicity (cytolytic)” value in [3] was 0. In addition, the “Hepatotoxicity (moderate)” value in series [4] turned out to be 1.2%; in series [10], 3. Moreover, the “Hepatotoxicity (choleostasis)” value in series [5] is given as 2. In addition, the “Hepatotoxicity (time to onset)” value in series [6] was 3 weeks - 3 months. In addition, the “Hepatotoxicity (granulomatous hepatitis)” value in series [7] is reported as 0. Besides, the “Hepatotoxicity (acute)” value in series [8] is recorded as 2; in series [13], 0%. Moreover, the “Hepatotoxicity (steatosis)” value in [9] was found to be 0. The “Hepatotoxicity (cirrhosis)” value in [11] is on record as 0. Also, the “Hepatotoxicity (benign tumour)” value in series [12] amounted to 0. Also, the “Hepatotoxicity (comment)” value in [14] is “PERICHOLANGITE CHOLESTASE_PROLONGEE”. The “Hepatotoxicity (malignant tumour)” value in series [15] is recorded as 0. In series [16], the “Hepatotoxicity (chronic liver disease)” value came to 0.

In the case of `CCC1=C(C)CN(C(=O)NCCc2ccc(S(=O)(=O)NC(=O)N[C@H]3CC[C@H](C)CC3)cc2)C1=O` [GLIMEPIRIDE], the “Hepatotoxicity (severe hepatitis)” value in [1] was determined as 0. Also, the “Hepatotoxicity (association with vascular disease)” value in series [2] stood at 0. Moreover, the “Hepatotoxicity (cytolytic)” value in series [3] turned out to be 1. Also, the “Hepatotoxicity (moderate)” value in [4] worked out at 0%; in [10], 0. Also, the “Hepatotoxicity (choleostasis)” value in [5] came to 1. Besides, the “Hepatotoxicity (time to onset)” value in series [6] came out at 2.5 months - 3.3 months. Also, the “Hepatotoxicity (granulomatous hepatitis)” value in series [7] came out at 0. In addition, the “Hepatotoxicity (acute)” value in [8] is recorded as 2; in [13], 0%. The “Hepatotoxicity (steatosis)” value in series [9] worked out at 0. In addition, the “Hepatotoxicity (cirrhosis)” value in [11] turned out to be 0. For the same compound, the “Hepatotoxicity (benign tumour)” value in series [12] was found to be 0. Besides, the “Hepatotoxicity (comment)” value in [14] is given as “CHOLANGIOLITE”. Further, the “Hepatotoxicity (malignant tumour)” value in [15] is on record as 0. Also, the “Hepatotoxicity (chronic liver disease)” value in series [16] is on record as 0.

Take `N=C(N)c1ccc(/C=C/c2ccc(C(=N)N)cc2O)cc1` [HYDROXYSTILBAMIDINE]: the “Hepatotoxicity (severe hepatitis)” value in series [1] is 0. Further, the “Hepatotoxicity (association with vascular disease)” value in series [2] amounted to 0. For the same compound, the “Hepatotoxicity (cytolytic)” value in series [3] was 0. Further, the “Hepatotoxicity (moderate)” value in series [4] is recorded as 0%; in series [10], 0. Also, the “Hepatotoxicity (choleostasis)” value in series [5] came out at 0. Further, the “Hepatotoxicity (time to onset)” value in series [6] was 1 month. For the same compound, the “Hepatotoxicity (granulomatous hepatitis)” value in series [7] stood at 0. Further, the “Hepatotoxicity (acute)” value is reported as 1 in series [8] and 0% in series [13]. The “Hepatotoxicity (steatosis)” value in [9] is reported as 1. In [11], the “Hepatotoxicity (cirrhosis)” value worked out at 0. The “Hepatotoxicity (benign tumour)” value in [12] came to 0. Further, the “Hepatotoxicity (comment)” value in [14] was “#S.REYE”. Further, the “Hepatotoxicity (malignant tumour)” value in series [15] was 0. In [16], the “Hepatotoxicity (chronic liver disease)” value is 0.

These data come from ChEMBL document CHEMBL3137667, “[Drug-induced liver injury; fourteenth updated edition of the bibliographic database of liver injuries and related drugs]” (Gastroenterol Clin Biol, 2004).
